# According to article PMC8185074, “Anchor extension: a structure-guided approach to design cyclic peptides targeting enzyme active sites” (Nature Communications, 2021):
# Peptide text beside a SMILES is read from it.
# Tests used:
# Format in all cases: biochemical
# HDAC2 [1] = target: T1, HDAC2 (Homo sapiens, UniProt Q92769); experiment: Initial HDAC2 IC50 estimate (BPS Biosciences HDAC fluorogenic assay kit); conditions: Supplementary Dataset 2; read-out: HDAC2 activity (initial activity)
# T1 construct: purchased Reaction Biology Corporation (assay run by the CRO)
# Outline: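 Inhibition measured by kit-based fluorogenic HDAC activity assays, with each point in duplicate or triplicate. Values come from a full 1 µM–100 pM series (1:10 steps) or are range estimates from just 20 nM and 200 nM.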
# HDAC2 [2] = target: T1, HDAC2; experiment: HDAC2 inhibition, full IC50 measurement (Reaction Biology; fluorogenic p53 peptide RHKK(Ac)AMC)
# Outline: (§1)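 Inhibitory peptides were acoustically dispensed with enzyme, then substrate added; 1 h at 30 °C. Developer stopped reaction; plateau endpoint fluorescence (360/460 nm) gave IC50.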
# HDAC3 = target: T2, HDAC3 (Homo sapiens, UniProt O15379); experiment: HDAC3 inhibition, full IC50 measurement (Reaction Biology; fluorogenic p53 peptide RHKK(Ac)AMC)
# T2 construct: purchased Reaction Biology Corporation (assay run by the CRO)
# Outline: as §1
# HDAC8 = target: T3, HDAC8 (Homo sapiens, UniProt Q9BY41); experiment: HDAC8 inhibition, full IC50 measurement (Reaction Biology; fluorogenic p53 peptide RHKK(Ac)AMC); conditions: t1/t2 replicates
# T3 construct: purchased Reaction Biology Corporation (assay run by the CRO)
# T3 sequence (Q9BY41 1-377): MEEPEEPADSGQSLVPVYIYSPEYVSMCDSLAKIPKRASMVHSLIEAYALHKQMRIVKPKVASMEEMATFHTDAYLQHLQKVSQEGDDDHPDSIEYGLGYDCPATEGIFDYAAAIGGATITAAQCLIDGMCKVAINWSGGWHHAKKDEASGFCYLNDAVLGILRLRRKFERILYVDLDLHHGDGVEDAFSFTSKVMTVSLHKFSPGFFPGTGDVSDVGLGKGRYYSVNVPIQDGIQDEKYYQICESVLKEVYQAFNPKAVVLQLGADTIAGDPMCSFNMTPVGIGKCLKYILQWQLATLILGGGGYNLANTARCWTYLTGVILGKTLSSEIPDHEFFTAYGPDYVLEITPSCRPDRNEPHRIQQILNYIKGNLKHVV
# Outline: as §1
# HDAC1 = target: T4, HDAC1 (Homo sapiens, UniProt Q13547); experiment: HDAC1 inhibition, full IC50 measurement (Reaction Biology; fluorogenic p53 peptide RHKK(Ac)AMC); conditions: t1/t2 replicates
# T4 construct: purchased Reaction Biology Corporation (assay run by the CRO)
# Outline: as §1
# [3] = peptide conc. 1.00E-05 M, listed as des4.3.1_t1
# [4] = peptide conc. 1.00E-05 M, listed as des4.3.1_t2
# [5] = peptide conc. 1.11E-06 M, listed as des4.3.1_t1
# [6] = peptide conc. 1.11E-06 M, listed as des4.3.1_t2
# [7] = peptide conc. 1.23E-07 M, listed as des4.3.1_t1
# [8] = peptide conc. 1.23E-07 M, listed as des4.3.1_t2
# [9] = peptide conc. 1.37E-08 M, listed as des4.3.1_t1
# [10] = peptide conc. 1.37E-08 M, listed as des4.3.1_t2
# [11] = peptide conc. 1.52E-09 M, listed as des4.3.1_t1
# [12] = peptide conc. 1.52E-09 M, listed as des4.3.1_t2
# [13] = peptide conc. 3.33E-06 M, listed as des4.3.1_t1
# [14] = peptide conc. 3.33E-06 M, listed as des4.3.1_t2
# [15] = peptide conc. 3.70E-07 M, listed as des4.3.1_t1
# [16] = peptide conc. 3.70E-07 M, listed as des4.3.1_t2
# [17] = peptide conc. 4.12E-08 M, listed as des4.3.1_t1
# [18] = peptide conc. 4.12E-08 M, listed as des4.3.1_t2
# [19] = peptide conc. 4.57E-09 M, listed as des4.3.1_t1
# [20] = peptide conc. 4.57E-09 M, listed as des4.3.1_t2
# [21] = peptide conc. 5.08E-10 M, listed as des4.3.1_t1
# [22] = peptide conc. 5.08E-10 M, listed as des4.3.1_t2
# T1 sequence (Q92769 whole entry): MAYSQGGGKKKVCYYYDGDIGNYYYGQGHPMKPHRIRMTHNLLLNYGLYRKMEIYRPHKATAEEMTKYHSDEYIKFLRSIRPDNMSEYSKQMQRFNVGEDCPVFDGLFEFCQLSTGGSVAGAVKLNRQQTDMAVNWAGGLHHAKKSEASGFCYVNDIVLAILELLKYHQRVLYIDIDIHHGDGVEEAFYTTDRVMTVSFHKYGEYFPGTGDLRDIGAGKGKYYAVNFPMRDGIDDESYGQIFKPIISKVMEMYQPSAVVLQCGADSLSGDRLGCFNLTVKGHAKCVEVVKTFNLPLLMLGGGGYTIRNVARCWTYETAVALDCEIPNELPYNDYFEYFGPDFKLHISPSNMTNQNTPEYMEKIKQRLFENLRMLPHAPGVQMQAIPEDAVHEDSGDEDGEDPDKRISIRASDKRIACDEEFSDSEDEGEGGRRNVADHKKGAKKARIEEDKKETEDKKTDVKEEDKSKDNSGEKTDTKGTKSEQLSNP
# T2 sequence (O15379 whole entry): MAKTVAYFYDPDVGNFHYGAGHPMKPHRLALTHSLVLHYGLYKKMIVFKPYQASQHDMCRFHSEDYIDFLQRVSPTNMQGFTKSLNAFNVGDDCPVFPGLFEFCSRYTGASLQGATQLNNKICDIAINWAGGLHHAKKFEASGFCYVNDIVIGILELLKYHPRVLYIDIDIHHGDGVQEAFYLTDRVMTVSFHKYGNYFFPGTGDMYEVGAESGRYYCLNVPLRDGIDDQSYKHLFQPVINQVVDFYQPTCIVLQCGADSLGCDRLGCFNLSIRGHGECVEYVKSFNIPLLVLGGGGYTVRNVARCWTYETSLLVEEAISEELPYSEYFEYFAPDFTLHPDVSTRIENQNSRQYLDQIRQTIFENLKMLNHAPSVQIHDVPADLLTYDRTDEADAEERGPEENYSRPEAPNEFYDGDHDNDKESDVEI
# T2 sequence (Q9Y618 395-489 partner limits assumed): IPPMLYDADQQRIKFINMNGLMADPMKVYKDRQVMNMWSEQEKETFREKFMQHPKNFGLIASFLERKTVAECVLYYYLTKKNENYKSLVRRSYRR
# T4 sequence (Q13547 whole entry): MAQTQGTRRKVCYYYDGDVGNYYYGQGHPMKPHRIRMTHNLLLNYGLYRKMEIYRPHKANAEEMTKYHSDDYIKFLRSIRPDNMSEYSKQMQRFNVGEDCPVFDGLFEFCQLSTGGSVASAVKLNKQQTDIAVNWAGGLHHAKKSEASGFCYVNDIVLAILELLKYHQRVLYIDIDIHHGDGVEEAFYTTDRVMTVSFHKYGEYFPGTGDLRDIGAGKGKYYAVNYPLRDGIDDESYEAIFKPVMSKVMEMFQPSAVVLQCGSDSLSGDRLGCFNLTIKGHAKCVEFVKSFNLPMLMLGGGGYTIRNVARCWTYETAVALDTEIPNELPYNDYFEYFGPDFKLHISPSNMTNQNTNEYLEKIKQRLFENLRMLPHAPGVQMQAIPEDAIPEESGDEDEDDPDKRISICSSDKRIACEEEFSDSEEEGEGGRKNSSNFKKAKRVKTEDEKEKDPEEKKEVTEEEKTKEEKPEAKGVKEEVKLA
structure (smiles),measurement,setting,value
"CCCC[C@H]1NC(=O)[C@H](Cc2ccccc2)NC(=O)[C@H](CCCCCS)NC(=O)[C@@H](CCCNC(=N)N)NC(=O)[C@H](CC(=O)O)NC(=O)[C@@H](CO)NC(=O)[C@@H](C)NC(=O)[C@H](CCCCN)NC1=O [des4.3.1, SHA-Phe-dNle-Lys-dAla-dSer-Asp-dArg] (HELM PEPTIDE1{D.[dR].[O=C([C@H](CCCCCS)N[*:1])[*:2]].F.[CCCC[C@@H](N[*:1])C(=O)[*:2]].K.[dA].[dS]}$PEPTIDE1,PEPTIDE1,1:R1-8:R2$$$V2.0)",IC50,HDAC2 [1],350 nM
same,HDAC2 activity raw data (signal),"HDAC2 [2]; Conc. 1.00E-05 M, t1",97979
same,HDAC2 activity raw data (signal),"HDAC2 [2]; Conc. 1.00E-05 M, t2",118920
same,HDAC2 activity raw data (signal),"HDAC2 [2]; Conc. 1.11E-06 M, t1",710265
same,HDAC2 activity raw data (signal),"HDAC2 [2]; Conc. 1.11E-06 M, t2",678505
same,HDAC2 activity raw data (signal),"HDAC2 [2]; Conc. 1.23E-07 M, t1",1050894
same,HDAC2 activity raw data (signal),"HDAC2 [2]; Conc. 1.23E-07 M, t2",1073616
same,HDAC2 activity raw data (signal),"HDAC2 [2]; Conc. 1.37E-08 M, t1",1089277
same,HDAC2 activity raw data (signal),"HDAC2 [2]; Conc. 1.37E-08 M, t2",1188700
same,HDAC2 activity raw data (signal),"HDAC2 [2]; Conc. 1.52E-09 M, t1",1283576
same,HDAC2 activity raw data (signal),"HDAC2 [2]; Conc. 1.52E-09 M, t2",1146756
same,HDAC2 activity raw data (signal),"HDAC2 [2]; Conc. 3.33E-06 M, t1",321418
same,HDAC2 activity raw data (signal),"HDAC2 [2]; Conc. 3.33E-06 M, t2",369190
same,HDAC2 activity raw data (signal),"HDAC2 [2]; Conc. 3.70E-07 M, t1",905304
same,HDAC2 activity raw data (signal),"HDAC2 [2]; Conc. 3.70E-07 M, t2",972905
same,HDAC2 activity raw data (signal),"HDAC2 [2]; Conc. 4.12E-08 M, t1",1002980
same,HDAC2 activity raw data (signal),"HDAC2 [2]; Conc. 4.12E-08 M, t2",1204296
same,HDAC2 activity raw data (signal),"HDAC2 [2]; Conc. 4.57E-09 M, t1",1158146
same,HDAC2 activity raw data (signal),"HDAC2 [2]; Conc. 4.57E-09 M, t2",1127910
same,HDAC2 activity raw data (signal),"HDAC2 [2]; Conc. 5.08E-10 M, t1",1185807
same,HDAC2 activity raw data (signal),"HDAC2 [2]; Conc. 5.08E-10 M, t2",1137899
same,IC50,"HDAC2 [2]; unit printed only in the axis title, read-out: HDAC2 IC50 (printed in dose-response picture)",1500 nM
same,HDAC3 activity raw data (signal),"HDAC3; Conc. 1.00E-05 M, t1",46115
same,HDAC3 activity raw data (signal),"HDAC3; Conc. 1.00E-05 M, t2",35378
same,HDAC3 activity raw data (signal),"HDAC3; Conc. 1.11E-06 M, t1",372696
same,HDAC3 activity raw data (signal),"HDAC3; Conc. 1.11E-06 M, t2",416274
same,HDAC3 activity raw data (signal),"HDAC3; Conc. 1.23E-07 M, t1",1045370
same,HDAC3 activity raw data (signal),"HDAC3; Conc. 1.23E-07 M, t2",1070696
same,HDAC3 activity raw data (signal),"HDAC3; Conc. 1.37E-08 M, t1",1250439
same,HDAC3 activity raw data (signal),"HDAC3; Conc. 1.37E-08 M, t2",1300529
same,HDAC3 activity raw data (signal),"HDAC3; Conc. 1.52E-09 M, t1",1121419
same,HDAC3 activity raw data (signal),"HDAC3; Conc. 1.52E-09 M, t2",1274974
same,HDAC3 activity raw data (signal),"HDAC3; Conc. 3.33E-06 M, t1",172249
same,HDAC3 activity raw data (signal),"HDAC3; Conc. 3.33E-06 M, t2",152173
same,HDAC3 activity raw data (signal),"HDAC3; Conc. 3.70E-07 M, t1",787295
same,HDAC3 activity raw data (signal),"HDAC3; Conc. 3.70E-07 M, t2",779442
same,HDAC3 activity raw data (signal),"HDAC3; Conc. 4.12E-08 M, t1",1318255
same,HDAC3 activity raw data (signal),"HDAC3; Conc. 4.12E-08 M, t2",1249169
same,HDAC3 activity raw data (signal),"HDAC3; Conc. 4.57E-09 M, t1",1278679
same,HDAC3 activity raw data (signal),"HDAC3; Conc. 4.57E-09 M, t2",1136444
same,HDAC3 activity raw data (signal),"HDAC3; Conc. 5.08E-10 M, t1",1099296
same,HDAC3 activity raw data (signal),"HDAC3; Conc. 5.08E-10 M, t2",1140869
same,HDAC8 activity raw data (signal),HDAC8; [3],-1078311
same,HDAC8 activity raw data (signal),HDAC8; [4],-204031
same,HDAC8 activity raw data (signal),HDAC8; [5],952629
same,HDAC8 activity raw data (signal),HDAC8; [6],3749954
same,HDAC8 activity raw data (signal),HDAC8; [7],24845816
same,HDAC8 activity raw data (signal),HDAC8; [8],32510062
same,HDAC8 activity raw data (signal),HDAC8; [9],71732810
same,HDAC8 activity raw data (signal),HDAC8; [10],73842492
same,HDAC8 activity raw data (signal),HDAC8; [11],70954745
same,HDAC8 activity raw data (signal),HDAC8; [12],80270259
same,HDAC8 activity raw data (signal),HDAC8; [13],928811
same,HDAC8 activity raw data (signal),HDAC8; [14],1732618
same,HDAC8 activity raw data (signal),HDAC8; [15],8410528
same,HDAC8 activity raw data (signal),HDAC8; [16],10886213
same,HDAC8 activity raw data (signal),HDAC8; [17],59468141
same,HDAC8 activity raw data (signal),HDAC8; [18],56999449
same,HDAC8 activity raw data (signal),HDAC8; [19],79326596
same,HDAC8 activity raw data (signal),HDAC8; [20],78170432
same,HDAC8 activity raw data (signal),HDAC8; [21],81559751
same,HDAC8 activity raw data (signal),HDAC8; [22],84202880
same,HDAC1 activity raw data (signal),HDAC1; [3],61312
same,HDAC1 activity raw data (signal),HDAC1; [4],56616
same,HDAC1 activity raw data (signal),HDAC1; [5],524367
same,HDAC1 activity raw data (signal),HDAC1; [6],474109
same,HDAC1 activity raw data (signal),HDAC1; [7],1051662
same,HDAC1 activity raw data (signal),HDAC1; [8],1036587
same,HDAC1 activity raw data (signal),HDAC1; [9],1215949
same,HDAC1 activity raw data (signal),HDAC1; [10],1295956
same,HDAC1 activity raw data (signal),HDAC1; [11],1351214
same,HDAC1 activity raw data (signal),HDAC1; [12],1240672
same,HDAC1 activity raw data (signal),HDAC1; [13],212161
same,HDAC1 activity raw data (signal),HDAC1; [14],198550
same,HDAC1 activity raw data (signal),HDAC1; [15],878996
same,HDAC1 activity raw data (signal),HDAC1; [16],808933
same,HDAC1 activity raw data (signal),HDAC1; [17],1147207
same,HDAC1 activity raw data (signal),HDAC1; [18],1235202
same,HDAC1 activity raw data (signal),HDAC1; [19],1224928
same,HDAC1 activity raw data (signal),HDAC1; [20],1148569
same,HDAC1 activity raw data (signal),HDAC1; [21],1219331
same,HDAC1 activity raw data (signal),HDAC1; [22],1171745
